# According to patent US6730792B2, “β3 adrenergic agonists” (Eli Lilly and Company, priority 2000, dated 2004):
# Biological target: T1, human β3 adrenergic receptor (Homo sapiens, UniProt P13945)
# T1 construct: expressed in transfected cells; host or cells: DXB-11 Chinese hamster ovary (CHO) cell line, stably transfected (phd expression vector)
# Experiment: whole cell receptor coupled c-AMP assay, human β3 receptor in CHO cells (EC50, Emax relative to isoproterenol)
# Type: cell-based
# Conditions: Emax ± standard error of the mean; average of at least 3 runs except where n = 1; compound tested in the isolated form listed
# Excerpt: The genes encoding the human β1-adrenergic receptor (Frielle et al., Proc. Natl. Acad. Sci., 84:7920-7924, 1987), the human β2-adrenergic receptor (Kobika et al., Proc. Natl. Acad. Sci., 84:46-50, 1987, Emorine et al., Proc. Natl. Acad. Sci., 84:6995-6999, 1987) and the human β3 adrenergic receptor (Granneman et al., Molecular Pharmacology, 44(2):264-70, 1993) are individually subcloned into a phd expression vector (Grinnell et al., Bio/Technology, 5:1189-1192, 1987) and transfected into the DXB-11 Chinese hamster ovary (CHO) cell line by calcium phosphate precipitation methodology. The stably transfected cells are grown to 95% confluency in 95% Dulbecco's modified Eagles Medium (DMEM), 5% fetal bovine serum and 0.01% proline. Media is removed and the cells are washed with phosphate buffered (pH 7.4) saline (without magnesium and calcium). Cells are then lifted using an enzyme free cell dissociation solution (Specialty Media, Lavallette, N.J.) and pelleted by centrifugation.
# Cells from each of the above cell lines are resuspended and added (20,000/well) to a 96-well plate. Cells are incubated at 37° C. with representative compounds of the invention for 20 minutes in buffer (Hank's balanced salt solution, 10 mM HEPES, 0.1% BSA, 1 mM L-ascorbic acid, 0.2% dimethyl sulfoxide, 1 mm 3-isobutyl-1-methylxanthine, pH 7.4). After halting the incubation with quench buffer (50 mM Na Acetate, 0.25% Triton X-100, pH 5.8), the c-AMP level is quantified by scintillation proximity assay (SPA) using a modification of the commercially available c-AMP kit (Amersham, Arlington Heights, Ill.) with rabbit anti-cAMP antibody (ICN Biomedicals, Aurora, Ohio) for the kit.
# Sigmoidal dose response curves, from the whole cell receptor coupled c-AMP assay are fit to a four parameter logistic equation using non linear regression: y=(a−d)/(1+(Dose/c)^b)+d where a and d are responses at zero and maximal dose, b is the slope factor and c is the EC50 as previously described (DeLean et al., Am. J. Physiol., 235, E97-E102, 1978). EC50 is assessed as the concentration producing 50% of the maximum response to each agonist.
# Isoproterenol is accepted in the art as a non-selective β3 agonist and is widely used as a comparator in evaluating the activity of compounds. See Trends in Pharm. Sci., 15:3, 1994. The % intrinsic activity (Emax) of representative compounds of the invention is assessed relative to isoproterenol by the compound's maximal response divided by the isoproterenol maximal response times 100.
# T1 sequence (P13945 whole entry): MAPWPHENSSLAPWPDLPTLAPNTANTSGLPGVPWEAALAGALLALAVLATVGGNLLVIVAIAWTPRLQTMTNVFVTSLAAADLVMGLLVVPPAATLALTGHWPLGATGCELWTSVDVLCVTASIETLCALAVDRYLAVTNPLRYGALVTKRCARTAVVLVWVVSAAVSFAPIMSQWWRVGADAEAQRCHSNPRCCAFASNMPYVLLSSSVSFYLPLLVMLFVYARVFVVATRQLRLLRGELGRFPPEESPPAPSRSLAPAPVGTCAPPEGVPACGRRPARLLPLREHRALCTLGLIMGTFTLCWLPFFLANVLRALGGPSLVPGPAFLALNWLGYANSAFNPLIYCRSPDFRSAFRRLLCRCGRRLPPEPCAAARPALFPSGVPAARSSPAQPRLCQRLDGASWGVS
row,Compound,Emax (%) ± SEM
1,CC(C)(Cc1ccc(Oc2ccccn2)cc1)NC[C@H](O)COc1ccccc1-c1cccs1.O=C(O)C(F)(F)F [Example 1],58.1 ± 2.6%
2,Cn1ccc(-c2ccccc2OC[C@@H](O)CNC(C)(C)Cc2ccc(Oc3ncccc3C#N)cc2)n1 [Example 4],55.0 ± 1.3%
3,Cn1ccc(-c2ccccc2OC[C@@H](O)CNC(C)(C)Cc2ccc(Oc3ncccc3C(N)=O)cc2)n1 [Example 15],70.9 ± 3.0%
4,CC(C)(Cc1ccc(Oc2ccc(C(N)=O)cn2)cc1)NC[C@H](O)COc1ccccc1-c1cccs1 [Example 16],67.6 ± 4.7%
5,CC(C)(Cc1ccc(Oc2ccc(C(N)=O)cn2)cc1)NC[C@H](O)COc1ccccc1-c1nccs1 [Example 17],62.9 ± 2.2%
6,CC(C)(Cc1ccc(Oc2ccc(C(N)=O)cn2)cc1)NC[C@H](O)COc1ccccc1-c1cc2ccccc2[nH]1 [Example 20],30.4 ± 2.5%
7,CC(C)(Cc1ccc(Oc2ncccc2C(N)=O)cc1)NC[C@H](O)COc1ccccc1-c1cc2ccccc2[nH]1 [Example 21],48.0 ± 2.0%
8,CC(C)(Cc1ccc(Oc2ccc(C(N)=O)cn2)cc1)NC[C@H](O)COc1ccccc1N1CCCC1=O [Example 22],22.0 ± 5.3%
9,CC(C)(Cc1ccc(Oc2ccc(C(N)=O)cn2)cc1)NC[C@H](O)COc1ccccc1N1CCOCC1.Cl.Cl [Example 23],29.9 ± 3.2%
10,CC(C)(Cc1ccc(Oc2ccc(C(N)=O)cn2)cc1)NC[C@H](O)COc1ccccc1N1CCCCC1.Cl.Cl [Example 24],17.3 ± 3.2%
11,CC(C)(Cc1ccc(Oc2ccc(C(N)=O)cn2)cc1)NC[C@H](O)COc1ccccc1N1CCNCC1.Cl.Cl.Cl [Example 25],13.7 ± 3.5%
12,CC(C)(Cc1ccc(Oc2ccc(C(N)=O)cn2)cc1)NC[C@H](O)COc1ccccc1-c1nc2ccccc2o1 [Example 26],41.4 ± 6.6%
13,CC(C)(Cc1ccc(Oc2ccc(C(N)=O)cn2)cc1)NC[C@H](O)COc1ccccc1-c1nc2ccccc2s1 [Example 27],20.8 ± 8.5%
14,CC1(C)COC(c2ccccc2OC[C@@H](O)CNC(C)(C)Cc2ccc(Oc3ccc(C(N)=O)cn3)cc2)=N1 [Example 28],83.4 ± 7.2%
15,CC(C)(Cc1ccc(Oc2ccc(C(N)=O)cn2)cc1)NC[C@H](O)COc1ccccc1-n1cccc1.Cl [Example 29],48.4 ± 5.9%
16,CC(C)(Cc1ccc(Oc2ccc(C(N)=O)cn2)cc1)NC[C@H](O)COc1ccccc1-c1nnco1 [Example 30],51.7 ± 2.7%
17,CC(C)(Cc1ccc(Oc2ccc(C(N)=O)cn2)cc1)NC[C@H](O)COc1cc(Cl)ccc1-c1nnco1 [Example 31],12.1 n = 1%
18,CC(C)(Cc1ccc(Oc2ccc(C(N)=O)cn2)cc1)NC[C@H](O)COc1ccccc1-c1ccon1.Cl [Example 32],54.2 ± 5.0%

row,Compound,Emax (%) ± SEM
1,CC(C)(Cc1ccc(Oc2ccc(C(N)=O)cn2)cc1)NC[C@H](O)COc1ccccc1-c1ccnc(N)n1 [Example 33],26.2 ± 4.3%
2,CC(C)(Cc1ccc(Oc2ccc(C(N)=O)cn2)cc1)NC[C@H](O)COc1cccc(-c2cc[nH]n2)c1 [Example 34],<10%
3,CC(C)(Cc1ccc(Oc2ccc(C(N)=O)cn2)cc1)NC[C@H](O)COc1cccc(-c2ccno2)c1 [Example 35],28.9 n = 1%
4,CC(C)(Cc1ccc(Oc2ccc(C(N)=O)cn2)cc1)NC[C@H](O)COc1ccc(-c2ccno2)cc1 [Example 36],17.5 n = 1%
5,CC(C)(Cc1ccc(Oc2ccc(C(N)=O)cn2)cc1)NC[C@H](O)COc1cccc(-c2ccnc(N)n2)c1 [Example 38],20.5 n = 1%
6,CC(C)(Cc1ccc(Oc2ccc(C(N)=O)cn2)cc1)NC[C@H](O)COc1ccccc1C1=CC(=O)OC1.Cl [Example 41],33.5 ± 4.2%
7,CC(C)(Cc1ccc(Oc2ccc(C(N)=O)cn2)cc1)NC[C@H](O)COc1ccccc1-c1nncs1.O=C(O)C(=O)O [Example 42],43.3 ± 2.7%
8,CC(C)(Cc1ccc(Oc2ccc(C(N)=O)cn2)cc1)NC[C@H](O)COc1ccccc1-c1ccoc1.Cl [Example 43],61.9 ± 2.5%
9,CC(C)(Cc1ccc(Oc2ccc(C(N)=O)cn2)cc1)NC[C@H](O)COc1ccccc1-c1csnn1.O=C(O)C(=O)O [Example 44],22.1 ± 3.3%
10,CC(C)(Cc1ccc(Oc2ccc(C(N)=O)cn2)cc1)NC[C@H](O)COc1ccccc1-n1cccn1.Cl [Example 47],35.5 ± 5.5%
11,Cn1nccc1-c1ccccc1OC[C@@H](O)CNC(C)(C)Cc1ccc(Oc2ncccc2C#N)cc1 [Example 48],14.4 n = 1%
12,CC(C)(Cc1ccc(Oc2ncccc2C#N)cc1)NC[C@H](O)COc1ccccc1-c1cccs1 [Example 50],78.9 ± 2.5%
13,CC(C)(Cc1ccc(Oc2ncccc2C#N)cc1)NC[C@H](O)COc1ccccc1-c1cccs1.Cl [Example 51],74.1 ± 3.3%
14,CC(C)(Cc1ccc(Oc2ncccc2C#N)cc1)NC[C@H](O)COc1ccccc1-c1nccs1 [Example 52],70.1 ± 3.3%
15,CC(C)(Cc1ccc(Oc2ncccc2C#N)cc1)NC[C@H](O)COc1ccccc1-c1ccn[nH]1 [Example 55],37.5 n = 1%
16,CC(C)(Cc1ccc(Oc2ncccc2C#N)cc1)NC[C@H](O)COc1ccccc1-c1cc2ccccc2[nH]1 [Example 56],30.1 ± 2.1%
17,CC(C)(Cc1ccc(Oc2ncccc2C#N)cc1)NC[C@H](O)COc1ccccc1-c1ccncn1 [Example 57],41.8 ± 5.6%

# Now from value to compound:
row,Emax (%) ± SEM,Compound
1,43.6 ± 9.7%,CC(C)(Cc1ccc(Oc2ccccn2)cc1)NC[C@H](O)COc1ccccc1-c1ccno1.O=C(O)C(F)(F)F [Example 2]
2,<10%,Cn1nccc1-c1ccccc1OC[C@@H](O)CNC(C)(C)Cc1ccc(Oc2ccc(C#N)cn2)cc1 [Example 3]
3,66.1 ± 4.8%,CC(C)(Cc1ccc(Oc2ccc(C#N)cn2)cc1)NC[C@H](O)COc1ccccc1-c1cccs1 [Example 5]
4,58.7 ± 1.8%,CC(C)(Cc1ccc(Oc2ccc(C#N)cn2)cc1)NC[C@H](O)COc1ccccc1-c1nccs1 [Example 6]
5,48.8 ± 2.5%,CC(C)(Cc1ccc(Oc2ccc(C#N)cn2)cc1)NC[C@H](O)COc1ccccc1-c1ccno1 [Example 7]
6,33.7 n = 1%,CC(C)(Cc1ccc(Oc2ccc(C#N)cn2)cc1)NC[C@H](O)COc1ccccc1-c1ccn[nH]1 [Example 8]
7,23.7 ± 10.0%,CC(C)(Cc1ccc(Oc2ccc(C#N)cn2)cc1)NC[C@H](O)COc1ccccc1-c1cc2ccccc2[nH]1 [Example 9]
8,35.1 ± 0.9%,CC(C)(Cc1ccc(Oc2ccc(C#N)cn2)cc1)NC[C@H](O)COc1ccccc1-c1ccncn1 [Example 10]
9,18.0 ± 6.5%,CC(C)(Cc1ccc(Oc2ccc(C#N)cn2)cc1)NC[C@H](O)COc1ccccc1N1CCCC1=O [Example 11]
10,64.8 ± 6.3%,CC(C)(Cc1ccc(Oc2ccc(C#N)cn2)cc1)NC[C@H](O)COc1ccccc1-c1ccon1.Cl [Example 12]
11,54.8 ± 1.7%,CC(C)(Cc1ccc(Oc2ccc(C#N)cn2)cc1)NC[C@H](O)COc1ccccc1-c1cnco1.Cl [Example 13]
12,16.9 n = 1%,Cn1nccc1-c1ccccc1OC[C@@H](O)CNC(C)(C)Cc1ccc(Oc2ccc(C(N)=O)cn2)cc1 [Example 14]
13,49.1 ± 2.9%,CC(C)(Cc1ccc(Oc2ccc(C(N)=O)cn2)cc1)NC[C@H](O)COc1ccccc1-c1ccno1 [Example 18]
14,31.3 n = 1%,CC(C)(Cc1ccc(Oc2ccc(C(N)=O)cn2)cc1)NC[C@H](O)COc1ccccc1-c1ccn[nH]1 [Example 19]
15,66.5 ± 3.9%,CC(C)(Cc1ccc(Oc2ccc(C(N)=O)cn2)cc1)NC[C@H](O)COc1ccccc1-c1ncco1 [Example 45]
16,64.7 ± 1.3%,CC(C)(Cc1ccc(Oc2ccc(C(N)=O)cn2)cc1)NC[C@H](O)COc1ccccc1-c1cnco1.Cl [Example 46]
17,59.1 n = 1%,Cn1ccc(-c2ccccc2OC[C@@H](O)CNC(C)(C)Cc2ccc(Oc3ccc(C#N)cn3)cc2)n1 [Example 49]
18,74.5 ± 12.5%,CC(C)(Cc1ccc(Oc2ncccc2C#N)cc1)NC[C@H](O)COc1ccccc1-c1ccno1 [Example 53]
19,66.8 ± 6.8%,CC(C)(Cc1ccc(Oc2ncccc2C#N)cc1)NC[C@H](O)COc1ccccc1-c1ccno1.Cl [Example 54]
